These results are taken from patent publication US8916594B2, “5-membered ring heteroaromatic derivatives having NPY Y5 receptor antagonistic activity” (Shionogi & Co., Ltd., priority 2011, dated 2014).

Chain of mouse NPY Y5 receptor (O70342 whole entry): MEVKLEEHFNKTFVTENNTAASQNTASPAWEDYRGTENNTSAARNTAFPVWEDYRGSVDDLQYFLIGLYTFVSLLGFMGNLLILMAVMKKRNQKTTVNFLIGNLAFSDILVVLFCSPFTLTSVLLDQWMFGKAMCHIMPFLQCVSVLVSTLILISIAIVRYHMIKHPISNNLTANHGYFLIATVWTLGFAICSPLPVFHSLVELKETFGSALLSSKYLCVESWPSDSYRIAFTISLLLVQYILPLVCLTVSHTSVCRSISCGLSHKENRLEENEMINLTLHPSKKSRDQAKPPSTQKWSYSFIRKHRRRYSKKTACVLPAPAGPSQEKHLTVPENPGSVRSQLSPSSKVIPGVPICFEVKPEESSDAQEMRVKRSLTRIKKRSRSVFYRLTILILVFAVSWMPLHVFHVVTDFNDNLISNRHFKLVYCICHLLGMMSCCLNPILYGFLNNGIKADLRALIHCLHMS
T1 sequence (Q15761 whole entry): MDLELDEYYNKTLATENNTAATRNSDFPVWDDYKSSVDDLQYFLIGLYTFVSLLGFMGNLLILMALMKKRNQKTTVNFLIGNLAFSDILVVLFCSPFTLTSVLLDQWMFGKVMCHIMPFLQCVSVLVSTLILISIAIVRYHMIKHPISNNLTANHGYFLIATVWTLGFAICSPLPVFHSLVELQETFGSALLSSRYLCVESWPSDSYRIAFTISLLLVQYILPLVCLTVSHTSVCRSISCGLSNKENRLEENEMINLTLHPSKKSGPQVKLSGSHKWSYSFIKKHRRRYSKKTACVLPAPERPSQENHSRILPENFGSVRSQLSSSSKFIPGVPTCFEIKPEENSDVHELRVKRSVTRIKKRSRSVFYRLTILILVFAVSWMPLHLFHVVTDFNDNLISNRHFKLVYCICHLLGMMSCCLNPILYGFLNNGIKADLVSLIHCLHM

The target in one assay is mouse NPY Y5 receptor (Mus musculus (Mouse), UniProt O70342). Nature of the assay: Affinity for mouse NPY Y5 receptor ([125I] peptide YY binding, CHO cell membranes). The settings on record: membranes from CHO cells expressing mouse NPY Y5 receptor, [125I] peptide YY 60 pM, 25° C., 2 hours; read-out: 50% inhibitory concentration against the specific peptide YY binding (IC50 value). An excerpt:
cDNA sequence encoding a mouse NPY Y5 receptor (Biochim. Biophys. Acta 1328:83-89, 1997) was cloned in a vector (pME18S, Takebe et al. Mol. Cell. Biol. 8, 8957). The obtained expression vector was transfected into CHO cells as a host by using Lipofect AMINE reagent (Trademark, Gico BRL Co., Ltd.) according to the instruction manual. The cells that stably express NPY Y5 receptor were obtained.
(§1) The membranes prepared from the CHO cells expressing NPY Y5 receptor, the compound of this invention and 30,000 cpm [^125I] peptide YY (60 pM of final concentration: Healthcare) were incubated in the assay buffer (20 mM HEPES-Hanks buffer containing 0.1% bovine serum albumin, pH 7.4) at 25° C. for 2 hours, and then the membrane was filtered from the mixture through a glass filter (GF/C) presoaked with 1% polyethyleneimine. After washing with 50 mM Tris-HCl buffer (pH 7.4), radioactivity retained on the filters was quantified with a gamma counter. Nonspecific binding was defined as the amount of radioactivity bound to the membranes after incubation in the presence of 200 nM of peptide YY. The 50% inhibitory concentration of the test compound against the specific peptide YY binding (IC50 value) was calculated (Inui, A. et al. Endocrinology 131, 2090-2096 (1992)).
Regarding `CCS(=O)(=O)NC[C@H]1CC[C@H](Nc2nc(-c3cccc(F)c3)no2)CC1` [Compound I-017], the IC50 was 0.22 nM. In the case of `CCS(=O)(=O)NC[C@H]1CC[C@H](Nc2nc(-c3ccccc3)no2)CC1` [Compound I-011], the IC50 was determined as 0.34 nM. Same read-out and setting: with `CC(C)(C)S(=O)(=O)NC[C@H]1CC[C@H](Nc2nc(C(F)(F)F)no2)CC1` [Compound I-136] the figure was 1.5 nM; with `CC(C)(C)S(=O)(=O)NC[C@H]1CC[C@H](Nc2nc(C3(F)CC(F)(F)C3)no2)CC1` [Compound I-161], 1.9 nM. The same measure, in the same setting: as for `CC1(c2noc(N[C@H]3CC[C@H](CNS(=O)(=O)C(C)(C)C)CC3)n2)CC(F)(F)C1` [Compound I-143], the figure is 0.8 nM. Take `CC(C)(C)S(=O)(=O)NC[C@H]1CC[C@H](Nc2nc(C(F)(F)C(F)(F)F)no2)CC1` [Compound I-149]: the IC50 came out at 1.04 nM. Still for that read-out and setting: with `CC(C)(C)S(=O)(=O)NC[C@H]1CC[C@H](Nc2nc(-c3ccc(F)cn3)no2)CC1` [Compound I-100] the figure was 0.9 nM; with `CC(C)(c1ccccc1)c1noc(N[C@H]2CC[C@H](CNS(=O)(=O)C(C)(C)C)CC2)n1` [Compound I-130], 0.7 nM; with `CS(=O)(=O)NC[C@H]1CC[C@H](Nc2nc(-c3ccc(F)cc3)no2)CC1` [Compound I-023], 1.4 nM. Same read-out and setting: as for `CCS(=O)(=O)NC[C@H]1CC[C@H](Nc2nc(-c3cc(F)cc(F)c3)no2)CC1` [Compound I-053], the figure is 0.23 nM; as for `CC(C)S(=O)(=O)NC[C@H]1CC[C@H](Nc2nc(C(F)(F)F)co2)CC1` [Compound I-150], 3.6 nM; as for `CC(C)S(=O)(=O)NC[C@H]1CC[C@H](Nc2nc(C3(C)CC(F)(F)C3)no2)CC1` [Compound I-147], 0.61 nM. On the same count and under the same terms, with `CC(C)S(=O)(=O)NC[C@H]1CC[C@H](Nc2nc(-c3cccc(F)c3)no2)CC1` [Compound I-018] the figure was 0.2 nM. In the case of `CC(C)S(=O)(=O)NC[C@H]1CC[C@H](Nc2nc(C(F)(F)C(F)(F)F)no2)CC1` [Compound I-152], the IC50 was 0.65 nM. The same measure, in the same setting: as for `CCS(=O)(=O)NC[C@H]1CC[C@H](Nc2nc(-c3ccc(F)cc3)no2)CC1` [Compound I-006], the figure is 0.32 nM; as for `CC(C)S(=O)(=O)NC[C@H]1CC[C@H](Nc2nc(-c3ccc(F)cn3)no2)CC1` [Compound I-099], 0.8 nM. Same read-out and setting: as for `CS(=O)(=O)NC[C@H]1CC[C@H](Nc2nc(-c3cccc(F)c3)no2)CC1` [Compound I-027], the figure is 0.86 nM. On the same count and under the same terms, as for `CCS(=O)(=O)NC[C@H]1CC[C@H](Nc2nc(C3(F)CCCC3)no2)CC1` [Compound I-138], the figure is 0.5 nM; as for `CCS(=O)(=O)NC[C@H]1CC[C@H](Nc2nc(-c3ccc(F)c(F)c3)no2)CC1` [Compound I-029], 0.22 nM.

In the case of `CS(=O)(=O)NC[C@H]1CC[C@H](Nc2nc(-c3cccc(Cl)c3)no2)CC1` [Compound I-081], the IC50 was found to be 0.9 nM. In the case of `CCS(=O)(=O)NC[C@H]1CC[C@H](Nc2nc(C(F)(F)C(F)(F)F)no2)CC1` [Compound I-153], the IC50 stood at 1.67 nM. The same measure, in the same setting: with `CCS(=O)(=O)NC[C@H]1CC[C@H](Nc2nc(-c3ccc(F)cc3F)no2)CC1` [Compound I-034] the figure was 0.18 nM; with `CC(C)S(=O)(=O)NC[C@H]1CC[C@H](Nc2nc(-c3ccccc3)no2)CC1` [Compound I-024], 0.13 nM. Same read-out and setting: as for `CC(C)S(=O)(=O)NC[C@H]1CC[C@H](Nc2nc(C(F)(F)F)no2)CC1` [Compound I-145], the figure is 3.1 nM; as for `CC(C)(C)S(=O)(=O)NC[C@H]1CC[C@H](Nc2nc(C(F)(F)F)co2)CC1` [Compound I-146], 4.21 nM.

The next assay has as its target T1, human NPY Y5 receptor (Homo sapiens (Human), UniProt Q15761). Nature of the assay: Affinity for human NPY Y5 receptor ([125I] peptide YY binding, CHO cell membranes). The settings on record: membranes from CHO cells expressing human NPY Y5 receptor, [125I] peptide YY 60 pM, 25° C., 2 hours; read-out: 50% inhibitory concentration against the specific peptide YY binding (IC50 value).
Description: cDNA sequence encoding a human NPY Y5 receptor (WO96/16542) was cloned in a vector (pME18S, Takebe et al. Mol. Cell. Biol. 8, 466-472). The obtained expression vector was transfected into CHO cells as a host by using Lipofect AMINE reagent (Trademark, Inbitrogen) according to the instruction manual. The cells that stably express human NPY Y5 receptor were obtained.
as §1, with “expressing human” for “expressing”, “[…]” for “[^125I]”, “glassfilter” for “glass filter”
Consider `CCS(=O)(=O)NC[C@H]1CC[C@H](Nc2nc(-c3cccc(F)c3)no2)CC1` [Compound I-017], for which the IC50 stood at 0.81 nM. On to `CCS(=O)(=O)NC[C@H]1CC[C@H](Nc2nc(-c3ccc(F)c(F)c3)no2)CC1` [Compound I-029], for which the IC50 was 0.86 nM.

The target in another assay is T1, human NPY Y5 receptor. Description: Inhibitory effect on cAMP production in CHO cells. Format: cell-based. The settings on record: CHO cells expressing human NPY Y5 receptor, 50 nM NPY, 10 μM forskolin; read-out: 50% inhibitory concentration (IC50 value) against the NPY activity on forskolin stimulated cAMP production. The procedure:
CHO cells expressing human NPY Y5 receptor were incubated in the presence of 2.5 mM isobutylmethylxanthine (SIGMA) at 37° C. for 20 min. After the incubation the compound of the present invention was added, and then the mixture was incubated for 5 min. Next, 50 nM NPY and 10 μM forskolin (SIGMA) were added, and the mixture was incubated for 30 min. After termination of the reaction by adding 1N HCl, the amount of cAMP in the supernatant was determined with an EIA kit (Amersham LIFE SCIENCE). The inhibitory activity of NPY against forskolin stimulated cAMP production was expressed as 100% and the 50% inhibitory concentration (IC50 value) of the compound of the present invention against the NPY activity was calculated.
(Cyclic AMP is a second messenger, typically raised through Gs and lowered through Gi signalling.)
On to `CCS(=O)(=O)NC[C@H]1CC[C@H](Nc2nc(-c3cccc(F)c3)no2)CC1` [Compound I-017], for which the IC50 stood at 3.3 nM. The same measure, in the same setting: with `CC(C)S(=O)(=O)NC[C@H]1CC[C@H](Nc2nc(-c3cccc(F)c3)no2)CC1` [Compound I-018] the figure was 2.1 nM. The same measure, in the same setting: as for `CCS(=O)(=O)NC[C@H]1CC[C@H](Nc2nc(-c3ccc(F)c(F)c3)no2)CC1` [Compound I-029], the figure is 1.3 nM.
